Measurements from patent publication US20050209298A1, “Method of photodynamic diagnosis for vascular diseases” (HAMAMATSU PHOTONICS K.K, priority 2002, published 2005).

What was measured:
[1] = tested on: Human Umbilical Vein Endothelial Cells (HUVECS); experiment: Effects of PDT on inflamed human umbilical vein endothelial cells (MTT viability); format: cell-based; settings: non-irradiated groups (0 J/cm^2); 25 or 50 μg/mL
Description: Test 1 (in vitro Test): Effects of PDT on Human Umbilical Vein Endothelial Cells (HUVECS)
As a first step, we determined if cell death of inflamed HUVECs can be induced by PDT.
HUVECs were seeded in a culture medium at […]. After a predetermined culture period, IL-1β(1 ng/mL) and TNF-α(10 ng/mL) were added to stimulate the cells and, thus, cause inflammation of the cells. After a 1-hour stimulation period, the cells were divided into two groups, and 25 μg/ml of ATX-S10•Na of the present invention was added to one group and 50 μg/ml of ATX-S10•Na to the other group. Subsequently, the cells were incubated at 37° C. for 24 hours.
After the incubation period, laser was irradiated onto the cultured cells (each dosage group was divided into five subgroups, which were irradiated at 0, 15, 30, 50, and 100 J/cm^2). 24 hours after the irradiation, the viability of HUVECs was determined by MTT assay.

TPA-caused dermatitis = experiment: TPA-induced dermatitis in mouse skin: skin accumulation and PDT after ATX-S10•Na ointment; format: in vivo, mice; settings: 1% ointment, 3 hours
Description: Test 4 (in vivo Test): Induction of Dermatitis in Mouse Skin by Treatment with Tetradecanoyl Phorbol Acetate (TPA) and Therapeutic Effects of PDT Following Application of ATX-S10•Na Ointment Using a hydrophilic ointment base described in Japanese Pharmacopoeia, two hydrophilic ointments, one containing 1% of ATX-S10•Na and the other 10% of the compound, were prepared by a common pharmaceutical technique. Male DBA/1 mice, aged 6 to 8 weeks and weighing 15 to 18 g, were shaved with a clipper and a razor. TPA was then applied to the skin to induce dermatitis. 3) To a test group, the hydrophilic ointment containing 1% ATX-S10•Na was applied. The ointment was applied to the region of the skin where dermatitis was induced and was rinsed off after 3 hours. To a control group, an ATX-S10•Na-free hydrophilic ointment was applied and was also rinsed off after application. […] The test group was then divided into two subgroups: one group was irradiated with laser at 100 J/cm^2 and the other group was not irradiated. Skin histology of each animal was observed.

[2] = tested on: Keratinocytes from a patient with inflammatory keratosis; experiment: Cytotoxicity of PDT against cultured keratinocytes; format: cell-based, human; settings: 50 μg/mL; laser 10 J/cm^2; 6 hours after laser irradiation; viable cells prior to irradiation = 100%
Description: FIG. 6 is a graph showing cytotoxic effects of PDT using ATX-S10•Na of the present invention on cultured keratinocytes. 50 μg/mL of ATX-S10•Na of the present invention was added to the cell culture. After a predetermined culture period, the cells were washed with PBS and were irradiated with laser at 10 J/cm^2. The viability of the keratinocytes was determined 1, 2, 3, 6, 12, and 24 hours after the irradiation and was plotted on a graph.
Test 3 (in vitro Test): Cytotoxicity Against Cultured Keratinocytes
Keratinocytes were collected from a patient with inflammatory keratosis and were cultured at 37° C. for 24 hours. To the cell culture, 50 μg/mL of ATX-S10•Na of the present invention was added and the cells were further cultured under the same conditions.
Assuming the initial number of the viable cells in the culture medium prior to laser irradiation to be 100%, the viability of the cells was determined at 1, 2, 3, 6, 12, and 24 hours after the irradiation. As shown, 75% of the keratinocytes incubated with ATX-S10•Na died 6 hours after laser irradiation.

[3] = tested on: type II collagen-induced arthritis; experiment: Effects of PDT on model mice with type II collagen-induced arthritis; format: in vivo; settings: 5 mg/kg i.v.
Description: Test 2 (in vivo Test): Effects of PDT on Model Mice with Type II Collagen-Induced Arthritis Male DBA/1 mice, aged6 to 8 weeks and weighing 15 to 18 g, were used. Arthritis was induced by type II collagen according to the following schedule. On Day 0, 2 mg. of anti-type II collagen antibody cocktail was intraperitoneally injected. On Day 1, 2 mg of anti-type II collagen antibody cocktail was again intraperitoneally injected. On Day 2 and Day 3, 50 μg of lipopolysaccharide (LPS) was intraperitoneally injected to induce type II collagen arthritis. On Day 5, induction of type II collagen arthritis was confirmed. A test group of 5 animals and a control group of 3 animals were intravenously injected with 5 mg/kg of ATX-S10•Na. The test group was exposed to laser irradiation (dose: 30 J/cm^2) 3 hours after administration of ATX-S10•Na. […] Each animal was perfusion-fixed, and joint tissue was collected and stained with Safranin 0. The resulting decalcified tissue sample was subjected to histological analysis.

Question: With C=CC1=C(C)C2=CC3=C(/C=C/NO)C(C)(O)C(=CC4=NC(=CC5=NC(=CC1=N2)C(C)=C5CCC(=O)N[C@@H](CC(=O)[O-])C(=O)[O-])C(CCC(=O)N[C@@H](CC(=O)[O-])C(=O)[O-])=C4C)N3.[Na+].[Na+].[Na+].[Na+] (stereo partly shown) [ATX-S10•Na] as the compound, how does the “cell death of HUVECs” value [1] read?
Answer: no cell death was observed

Question: What about the “TPA-caused dermatitis inflamed region (skin histology)” value (TPA-caused dermatitis; laser 100 J/cm^2) of the same compound?
Answer: significant decrease in the inflamed region

Question: And the “TPA-caused dermatitis inflamed region (skin histology)” value (TPA-caused dermatitis; non-irradiated group)?
Answer: sustained

Question: What about the keratinocytes died [2] of the same compound?
Answer: 75%

Question: And the “synovial infiltration (histological analysis of joint tissue)” value ([3]; laser 30 J/cm^2, test group)?
Answer: synovial infiltration was suppressed

Question: And the “synovial infiltration (histological analysis of joint tissue)” value ([3]; no laser irradiation (control group))?
Answer: significant infiltration of synovial cells

Question: And the clinical arthritis score ([3]; no laser irradiation (control group), Day 14)?
Answer: 4
